Species: Rattus norvegicus
Assay: Open TG-GATES - Regimen: Daily Repeat
Type: toxicity, organism-based, Sprague-Dawley
Parameters: regimen Daily Repeat, gender Male, age 6 weeks
Conditions: in vivo, iv, 2 mg/kg, route intravenous injection, dose level Low; for APTT / Bas / Eos / Fbg / Hb / Ht / Lym / MCH / MCHC / MCV / Mono / Neu / PT / Plat / RBC / Ret / WBC: tissue Blood; for KIDNEY_L / KIDNEY_R / KIDNEY_TOTAL: tissue Kidney; for LIVER: tissue Liver; for A/G / ALP / ALT / AST / BUN / CRE / Ca / Cl / DBIL / GLC / IP / K / LDH / Na / PL / RALB / TBIL / TC / TG / TP / gamma-GTP: tissue Plasma

NCCBr [BROMOETHANAMINE]
TERMINAL_BW (72 h, time 3 day): 236.2 g
APTT (72 h, time 3 day): 22.5 s
Bas (72 h, time 3 day): 0%
Eos (72 h, time 3 day): 1%
Fbg (72 h, time 3 day): 280.4 mg/dL
Hb (72 h, time 3 day): 13.2 g/dL
Ht (72 h, time 3 day): 38.3%
Lym (72 h, time 3 day): 83.2%
MCH (72 h, time 3 day): 21.2 pg
MCHC (72 h, time 3 day): 34.4%
MCV (72 h, time 3 day): 61.6 fL
Mono (72 h, time 3 day): 2.8%
Neu (72 h, time 3 day): 12%
PT (72 h, time 3 day): 16.2 s
Plat (72 h, time 3 day): 119.2 x10_4/uL
RBC (72 h, time 3 day): 620.8 x10_4/ul
Ret (72 h, time 3 day): 4.7%
WBC (72 h, time 3 day): 80.2 x10_2/uL
KIDNEY_L (72 h, time 3 day): 1 g
KIDNEY_R (72 h, time 3 day): 1 g
KIDNEY_TOTAL (72 h, time 3 day): 2 g
LIVER (72 h, time 3 day): 11.1 g
A/G (72 h, time 3 day): 1.3
ALP (72 h, time 3 day): 1553.4 IU/L
ALT (72 h, time 3 day): 39.6 IU/L
AST (72 h, time 3 day): 68.4 IU/L
BUN (72 h, time 3 day): 16.2 mg/dL
CRE (72 h, time 3 day): 0.2 mg/dL
Ca (72 h, time 3 day): 10.8 mg/dL
Cl (72 h, time 3 day): 106.4 meq/L
DBIL (72 h, time 3 day): 0 mg/dL
GLC (72 h, time 3 day): 178.6 mg/dL
IP (72 h, time 3 day): 7.2 mg/dL
K (72 h, time 3 day): 4.6 meq/L
LDH (72 h, time 3 day): 195.6 IU/L
Na (72 h, time 3 day): 141.8 meq/L
PL (72 h, time 3 day): 143.4 mg/dL
RALB (72 h, time 3 day): 3.1 g/dL
TBIL (72 h, time 3 day): 0.006 mg/dL
TC (72 h, time 3 day): 73.6 mg/dL
TG (72 h, time 3 day): 113 mg/dL
TP (72 h, time 3 day): 5.6 g/dL
gamma-GTP (72 h, time 3 day): 2 IU/L
TERMINAL_BW ([…], time 7 day): 254.2 g
TERMINAL_BW ([…], time 14 day): 302.2 g
TERMINAL_BW ([…], time 28 day): 366.5 g
APTT ([…], time 7 day): 22.7 s
Bas ([…], time 7 day): 0%
Eos ([…], time 7 day): 0.8%
Fbg ([…], time 7 day): 278.8 mg/dL
Hb ([…], time 7 day): 13.5 g/dL
Ht ([…], time 7 day): 39.3%
Lym ([…], time 7 day): 80.6%
MCH ([…], time 7 day): 21 pg
MCHC ([…], time 7 day): 34.4%
MCV ([…], time 7 day): 61 fL
Mono ([…], time 7 day): 2.8%
Neu ([…], time 7 day): 15%
PT ([…], time 7 day): 15.8 s
Plat ([…], time 7 day): 116.6 x10_4/uL
RBC ([…], time 7 day): 644 x10_4/ul
Ret ([…], time 7 day): 3.9%
WBC ([…], time 7 day): 126.7 x10_2/uL
APTT ([…], time 14 day): 23 s
Bas ([…], time 14 day): 0%
Eos ([…], time 14 day): 1%
Fbg ([…], time 14 day): 310.8 mg/dL
Hb ([…], time 14 day): 14.1 g/dL
Ht ([…], time 14 day): 40.3%
Lym ([…], time 14 day): 84.8%
MCH ([…], time 14 day): 20.5 pg
MCHC ([…], time 14 day): 35%
MCV ([…], time 14 day): 58.7 fL
Mono ([…], time 14 day): 2.2%
Neu ([…], time 14 day): 11.4%
PT ([…], time 14 day): 15.8 s
Plat ([…], time 14 day): 116.5 x10_4/uL
RBC ([…], time 14 day): 686.6 x10_4/ul
Ret ([…], time 14 day): 3.3%
WBC ([…], time 14 day): 104.7 x10_2/uL
APTT ([…], time 28 day): 24.7 s
Bas ([…], time 28 day): 0%
Eos ([…], time 28 day): 1%
Fbg ([…], time 28 day): 305.8 mg/dL
Hb ([…], time 28 day): 15.7 g/dL
Ht ([…], time 28 day): 42.4%
Lym ([…], time 28 day): 85.4%
MCH ([…], time 28 day): 20.4 pg
MCHC ([…], time 28 day): 37.1%
MCV ([…], time 28 day): 54.9 fL
Mono ([…], time 28 day): 1.4%
Neu ([…], time 28 day): 10.6%
PT ([…], time 28 day): 16.4 s
Plat ([…], time 28 day): 110.2 x10_4/uL
RBC ([…], time 28 day): 772.8 x10_4/ul
Ret ([…], time 28 day): 1.9%
WBC ([…], time 28 day): 107.8 x10_2/uL
KIDNEY_L ([…], time 7 day): 1.1 g
KIDNEY_R ([…], time 7 day): 1.1 g
KIDNEY_TOTAL ([…], time 7 day): 2.2 g
KIDNEY_L ([…], time 14 day): 1.2 g
KIDNEY_R ([…], time 14 day): 1.2 g
KIDNEY_TOTAL ([…], time 14 day): 2.4 g
KIDNEY_L ([…], time 28 day): 1.4 g
KIDNEY_R ([…], time 28 day): 1.4 g
KIDNEY_TOTAL ([…], time 28 day): 2.8 g
LIVER ([…], time 7 day): 11.6 g
LIVER ([…], time 14 day): 13.5 g
LIVER ([…], time 28 day): 15 g
A/G ([…], time 7 day): 1.2
ALP ([…], time 7 day): 1420.8 IU/L
ALT ([…], time 7 day): 36.2 IU/L
AST ([…], time 7 day): 64 IU/L
BUN ([…], time 7 day): 16.2 mg/dL
CRE ([…], time 7 day): 0.2 mg/dL
Ca ([…], time 7 day): 10.7 mg/dL
Cl ([…], time 7 day): 105.8 meq/L
DBIL ([…], time 7 day): 0 mg/dL
GLC ([…], time 7 day): 181 mg/dL
IP ([…], time 7 day): 7 mg/dL
K ([…], time 7 day): 4.6 meq/L
LDH ([…], time 7 day): 158.8 IU/L
Na ([…], time 7 day): 140.8 meq/L
PL ([…], time 7 day): 141 mg/dL
RALB ([…], time 7 day): 2.9 g/dL
TBIL ([…], time 7 day): 0.01 mg/dL
TC ([…], time 7 day): 75.2 mg/dL
TG ([…], time 7 day): 93 mg/dL
TP ([…], time 7 day): 5.4 g/dL
gamma-GTP ([…], time 7 day): 2 IU/L
A/G ([…], time 14 day): 1.1
ALP ([…], time 14 day): 1559.2 IU/L
ALT ([…], time 14 day): 40.6 IU/L
AST ([…], time 14 day): 67.6 IU/L
BUN ([…], time 14 day): 17.6 mg/dL
CRE ([…], time 14 day): 0.2 mg/dL
Ca ([…], time 14 day): 10.9 mg/dL
Cl ([…], time 14 day): 107 meq/L
DBIL ([…], time 14 day): 0 mg/dL
GLC ([…], time 14 day): 184 mg/dL
IP ([…], time 14 day): 7.1 mg/dL
K ([…], time 14 day): 4.3 meq/L
LDH ([…], time 14 day): 168.6 IU/L
Na ([…], time 14 day): 144.4 meq/L
PL ([…], time 14 day): 149 mg/dL
RALB ([…], time 14 day): 3 g/dL
TBIL ([…], time 14 day): 0 mg/dL
TC ([…], time 14 day): 75.4 mg/dL
TG ([…], time 14 day): 123 mg/dL
TP ([…], time 14 day): 5.7 g/dL
gamma-GTP ([…], time 14 day): 2.6 IU/L
A/G ([…], time 28 day): 1.1
ALP ([…], time 28 day): 1213.2 IU/L
ALT ([…], time 28 day): 40.8 IU/L
AST ([…], time 28 day): 66 IU/L
BUN ([…], time 28 day): 18.4 mg/dL
CRE ([…], time 28 day): 0.2 mg/dL
Ca ([…], time 28 day): 10.4 mg/dL
Cl ([…], time 28 day): 105.6 meq/L
DBIL ([…], time 28 day): 0 mg/dL
GLC ([…], time 28 day): 188.6 mg/dL
IP ([…], time 28 day): 6.6 mg/dL
K ([…], time 28 day): 4.1 meq/L
LDH ([…], time 28 day): 123 IU/L
Na ([…], time 28 day): 145.8 meq/L
PL ([…], time 28 day): 141.8 mg/dL
RALB ([…], time 28 day): 3.2 g/dL
TBIL ([…], time 28 day): 0.01 mg/dL
TC ([…], time 28 day): 67.4 mg/dL
TG ([…], time 28 day): 133.8 mg/dL
TP ([…], time 28 day): 6 g/dL
gamma-GTP ([…], time 28 day): 3 IU/L

Reference: ChEMBL document CHEMBL3885861, “Open TG-GATES”
